PubChem BioAssay (NCI)
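These data come from cells grown in 96-well plates and exposed to compound for 48 hours at five concentrations. Definition used: TGI = concentration required for complete inhibition of growth.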

What was measured:
Assay in all cases: NCI-60 cell line screen, 48 h
[1] = tested on: NCI-H460 lung
[2] = tested on: M14 melanoma
[3] = tested on: DU-145 prostate
[4] = tested on: LOX IMVI melanoma
[5] = tested on: HCT-116 colon
[6] = tested on: TK-10 renal
[7] = tested on: CCRF-CEM leukemia
[8] = tested on: RPMI-8226 leukemia
[9] = tested on: RXF-631 renal
[10] = tested on: OVCAR-3 ovarian
[11] = tested on: HOP-18 NSCLC
[12] = tested on: MOLT-4 leukemia
[13] = tested on: XF 498 CNS
[14] = tested on: SW-620 colon
[15] = tested on: HOP-92 NSCLC
[16] = tested on: OVCAR-5 ovarian
[17] = tested on: SNB-78 CNS
[18] = tested on: HCC-2998 colon
[19] = tested on: NCI/ADR-RES ovarian
[20] = tested on: OVCAR-8 ovarian
[21] = tested on: ACHN renal
[22] = tested on: EKVX NSCLC
[23] = tested on: MDA-MB-231 breast
[24] = tested on: SF-268 CNS
[25] = tested on: IGROV1 ovarian
[26] = tested on: SF-295 CNS
[27] = tested on: U251 CNS
[28] = tested on: MCF7 breast
[29] = tested on: SK-OV-3 ovarian
[30] = tested on: HOP-62 NSCLC
[31] = tested on: DLD-1 colon
[32] = tested on: NCI-H226 lung
[33] = tested on: UO-31 renal
[34] = tested on: SK-MEL-5 melanoma
[35] = tested on: LXFL 529 NSCLC
[36] = tested on: T-47D breast
[37] = tested on: SN12C renal
[38] = tested on: RXF 393 renal
[39] = tested on: BT-549 breast
[40] = tested on: KM12 colon
[41] = tested on: DMS 114 small cell lung
[42] = tested on: SK-MEL-2 melanoma
[43] = tested on: HT29 colon
[44] = tested on: COLO 205 colon
[45] = tested on: HCT-15 colon
[46] = tested on: HS 578T breast
[47] = tested on: A549 NSCLC
[48] = tested on: SNB-19 CNS
[49] = tested on: OVCAR-4 ovarian
[50] = tested on: KM20L2 colon
[51] = tested on: UACC-62 melanoma
[52] = tested on: M19-MEL melanoma
[53] = tested on: UACC-257 melanoma
[54] = tested on: HL-60(TB) leukemia
[55] = tested on: MALME-3M melanoma
[56] = tested on: SR leukemia
[57] = tested on: PC-3 prostate
[58] = tested on: A498 renal
[59] = tested on: SK-MEL-28 melanoma
[60] = tested on: CAKI-1 renal
[61] = tested on: MDA-N
[62] = tested on: 786-0 renal
[63] = tested on: K-562 leukemia
[64] = tested on: NCI-H23 lung
[65] = tested on: MDA-MB-435
[66] = tested on: SNB-75 CNS
[67] = tested on: DMS 273 small cell lung
[68] = tested on: NCI-H522 lung
[69] = tested on: SF-539 CNS

`COc1ccc(NC(=O)CC(=O)n2nc(-c3ccccc3)c(N=Nc3ccc(C)cc3)c2-c2ccccc2)cc1` gave a TGI [1] of 66.3 µM, a TGI [2] greater than 100 µM and a TGI [3] greater than 100 µM. The TGI [4] was greater than 100 µM, the TGI [5] was greater than 71 µM and the TGI [6] was 55.1 µM. For the same compound, the TGI [7] was greater than 100 µM, the TGI [8] was greater than 100 µM and the TGI [9] was greater than 100 µM. For the same compound, the TGI [10] was 77.2 µM, the TGI [11] was greater than 78.3 µM and the TGI [12] was greater than 100 µM. For the same compound, the TGI [13] was 24.9 µM, the TGI [14] was greater than 100 µM and the TGI [15] was 40.6 µM. It also gave a TGI [16] greater than 100 µM, a TGI [17] of 61.2 µM and a TGI [18] greater than 100 µM. The TGI [19] was greater than 61 µM, the TGI [20] was 63.3 µM and the TGI [21] was 60.9 µM. The TGI [22] was greater than 51.4 µM, the TGI [23] was greater than 59.6 µM and the TGI [24] was 53.4 µM. It also gave a TGI [25] of 49.9 µM, a TGI [26] of 52.2 µM and a TGI [27] of 47.5 µM. For the same compound, the TGI [28] was greater than 85.2 µM, the TGI [29] was 40 µM and the TGI [30] was 38.4 µM. The TGI [31] was greater than 100 µM, the TGI [32] was 58.3 µM and the TGI [33] was 55.3 µM. It also gave a TGI [34] greater than 78.1 µM, a TGI [35] greater than 100 µM and a TGI [36] greater than 75 µM. The TGI [37] was 81.9 µM, the TGI [38] was 46.4 µM and the TGI [39] was greater than 58 µM. For the same compound, the TGI [40] was greater than 100 µM, the TGI [41] was greater than 80.1 µM and the TGI [42] was 65.2 µM. The TGI [43] was greater than 100 µM, the TGI [44] was greater than 100 µM and the TGI [45] was greater than 100 µM. It also gave a TGI [46] of 60.7 µM, a TGI [47] of 63.3 µM and a TGI [48] of 49.4 µM. For the same compound, the TGI [49] was 53.8 µM, the TGI [50] was greater than 100 µM and the TGI [51] was 49.5 µM. For the same compound, the TGI [52] was greater than 100 µM, the TGI [53] was greater than 95.8 µM and the TGI [54] was greater than 100 µM. It also gave a TGI [55] of 70.3 µM, a TGI [56] of 98.3 µM and a TGI [57] greater than 57.9 µM. The TGI [58] was greater than 76.5 µM, the TGI [59] was greater than 100 µM and the TGI [60] was greater than 100 µM. It also gave a TGI [61] greater than 100 µM, a TGI [62] of 45.6 µM and a TGI [63] greater than 100 µM. For the same compound, the TGI [64] was 54 µM, the TGI [65] was greater than 100 µM and the TGI [66] was 41.2 µM. It also gave a TGI [67] greater than 100 µM, a TGI [68] of 48.3 µM and a TGI [69] of 44 µM.
